Source: patent US5659041A, “Hydrazino-type radionuclide chelators having an N3 S configuration” (Resolution Pharmaceuticals, Inc., priority 1994, dated 1997)
Blank lines part the entries; values can stand above or below the compound they belong to. Numbered stars: 1 amine (or outer) side, 2 acyl side, 3 side chain; on linkers, the order of the positions; unused ones are H or OH. Square brackets hold non-standard residues; d marks the D form. Peptide text beside a SMILES is read from it. X2 = CN(N[*:1])c1ccc(C(=O)[*:2])cn1; X1 = O=C(CSCN[*:1])[*:2]

How the values were obtained:
[1] = Extent of complexation of 99mTc with chelators (radioactivity of eluted C-18 Sep-Pak fractions); type: physicochemical; settings: for Chelator (EtOH-saline eluate), percent of total / Chelator (EtOH-saline eluate), radioactivity / TcO2, percent of total / TcO2, radioactivity / TcO4- (HCl eluate), percent of total / TcO4- (HCl eluate), radioactivity of eluted fraction: Example 2: SnCl2, pH 6, Example 4: sodium dithionite, pH 12-13, 75° C.
Description: The chelator N-(S-benzoylmercaptoacetyl)-glycyl-2-pyridylhydrazide (example 2, 1 mg) was dissolved in EtOH-water and hydrolyzed by heating with NaOH, after which the reaction mixture was neutralized with acetic acid to pH 6. 350 μg hydrolyzed chelator was reacted with 103 MBq TcO4^- and 10 μg SnCl2 at room temperature. […] To achieve adequate separation of the chelator, the solution was then loaded on a C-18 SepLPak column which was eluted with dilute HCI to remove Tc04-. Subsequent elution with 1:1 EtOH-saline removed the chelator while Tc02 remained on the column.
Another chelator was similarly labeled. Particularly, 300 μg of the hydrolyzed chelator N-(S-benzoylmercaptoacetyl)-glycyl-3-(6-chloropyridazyl)-hydrazide (example 4) was adjusted to pH 12-13 and reduced with 100 μg of sodium dithionite for 10 minutes at 75° C. The resulting mixture was then loaded on a C-18 Sep-Pak column and eluted with dilute HCI followed by EtOH-saline. The extent of complexation of ^99m Tc with chelators was measured by radioactivity of the eluted fractions; results are shown in the table below.

[2] = In vivo distribution of 99mTc labeled chelators within rats; set-up: species or system male Wistar rats; settings: rat, i.v. tail vein
Description: Distribution within rats of selected chelators and a reference chelator was determined using established protocols. Briefly, male Wistar rats (Charles River, 200 g) were anesthetized with somnitol (40 to 50 mg/kg) and 200 μL of the labeled chelator (ie. 200 μCi) was injected intravenously via the tail vein. Serial whole-body scintigrams were acquired for first 10 minutes. After further images were obtained at 60 and 120 minutes, the rat was killed with anesthesia and samples of organs (blood, heart, lung, liver, spleen, kidney, muscle, GI tract) were weighed and counted in either a well-type gamma counter or in a gamma dose calibrator. Dose calculations were made based On the assumption that rats weighed 200 g and that the blood volume constituted 8% body weight. All results were corrected for the residual dose in the tail.

[3] = Labeling of chelator-conjugate with 99mTc (HPLC radioactivity of fractions); type: physicochemical; settings: pertechnetate, stannous gluconate, boiling water bath 12 minutes
Description: The chelator-conjugate of example 11 (200 μL, 1 mg/mL saline) was injected into a 3 mL vacutainer with 100 μL pertechnetate (10 mCi) and 100 μL stannous gluconate (50 μg stannous chloride and 1 mg sodium gluconate). The tube was placed in a boiling water bath for 12 minutes and then filtered through a Watman PVDF syringe filter to collect the labeled conjugate solution which was further diluted with saline to prepare an injectable solution (2 Mbq/mL). The chelator-conjugate was isolated by HPLC (Beckman) from a (20 μL) sample (before dilution) to determine the labeling yield by measuring radioactivity of the fractions. 70.8%, 5.1% and 15.0% of the label was found in each of three fractions eluted for a 90.9% total labeling yield.

[4] = tested on: "Tuftsin" receptors on leukocytes; assay: Binding of TKPPR peptide to Tuftsin receptors on leukocytes
[5] = 200 μCi, organs counted after 120 minutes images

Compound: O=C(CSC(=O)c1ccccc1)NCC(=O)NNc1ccccn1 [Example 2, N-(S-benzoylmercaptoacetyl)-glycyl-2-pyridylhydrazide]
Chelator (EtOH-saline eluate), percent of total [1]: 68%
Chelator (EtOH-saline eluate), radioactivity [1]: 27.6 MBq
TcO2, percent of total [1]: 31%
TcO2, radioactivity [1]: 12.5 MBq
TcO4- (HCl eluate), percent of total [1]: 1%
TcO4- (HCl eluate), radioactivity of eluted fraction [1]: 0.15 MBq
activity present as TcO2 ([1]; SnCl2 at room temperature, pH 6, did not change after heating 10 minutes at 80° C.): Approximately half activity was present as TcO2
dose in the liver and GI tract [2, 5]: about 60%
dose remaining in the blood [2, 5]: about 6%

Compound: COC(=O)CC[C@H](NC(=O)CSC(=O)c1ccccc1)C(=O)NNc1ccccn1 [Example 3, No(S-benzoylmercaptoacetyl)-L-glutamyl-(gamma-methyl ester)-2-pyridylhydrazide]
accumulation in the kidney ([2]; 200 μCi, compared with the other chelators): greatest accumulation in the kidney

Compound: O=C(CSC(=O)c1ccccc1)NCC(=O)NNc1ccc(Cl)nn1 [Example 4, N-(S-benzoylmercaptoacetyl)-glycyl-3-(6-chloropyridazyl)-hydrazide]
Chelator (EtOH-saline eluate), percent of total [1]: 78%
Chelator (EtOH-saline eluate), radioactivity [1]: 14.19 MBq
TcO2, percent of total [1]: 14%
TcO2, radioactivity [1]: 2.55 MBq
TcO4- (HCl eluate), percent of total [1]: 8%
TcO4- (HCl eluate), radioactivity of eluted fraction [1]: 1.38 MBq
clearance from the blood (and other tissues) ([2]; 200 μCi): fastest clearance from the blood and other tissues
route of elimination ([2]; 200 μCi): mainly eliminated through the liver and GI tract
dose in the liver and GI tract [2, 5]: About 70%

Compound: CC(=O)NCSCC(=O)N[C@@H](CO)C(=O)NN(C)c1ccc(C(=O)NCC(=O)N[C@H](C(=O)N[C@@H](CCCCN)C(=O)N2CCC[C@H]2C(=O)N2CCC[C@H]2C(=O)N[C@@H](CCCNC(=N)N)C(=O)O)[C@@H](C)O)cn1 [Example 11, S-Acm-Mercaptoacetyl-Ser-N-methylhydrazino nicotinic acid- Gly--Thr--Lys--Pro--Pro--Arg] (Ac-[X1]S[X2]GTKPPR-OH)
total labeling yield [3]: 90.9%

The remaining lines, values ahead:

dose localized in the GI tract [2, 5]: 55%
dose remaining in the blood [2, 5]: about 10%
Compound: COC(=O)CC[C@H](NC(=O)CSC(=O)c1ccccc1)C(=O)NNc1ccc(Cl)nn1 [Example 5, N-(S-benzoylmercaptoacetyl)-L-glutamyl-(gamma-methylester)-3-(6-chloropyridazyl)-hydrazide]

retention in the blood pool ([2]; reference chelator lacking hydrazide): extensively retained in the blood pool
Compound: O=C(CNC(=O)CSC(=O)c1ccccc1)NCc1ccccn1 [N-(S-benzoylmercaptoacetyl)-glycyl-2-pyridylmethylamide, reference compound]

binding to "Tuftsin" receptors on leukocytes [4]: binds particularly well
Compound: TKPPR
